According to ChEMBL document CHEMBL4020835, “Optimization of Metabolic and Renal Clearance in a Series of Indole Acid Direct Activators of 5'-Adenosine Monophosphate-Activated Protein Kinase (AMPK)” (J Med Chem, 2018):
Converted amounts (≈) assume the structure as drawn.

Assays:
physchem [1] = test: physchem
physchem [2] = conditions: buffer, pH 7.4
[3] = AUC (0 to 24 hrs) in cynomolgus monkey at 1 mg/kg, iv via bolus dose measured up to 24 hrs post dose by LC-MS/MS analysis; format: ADME, organism-based, Macaca fascicularis; parameters: time < 24 hr, dose 1 mg/kg, route intravenous; conditions: in vivo
[4] = Cmax in cynomolgus monkey at 3 mg/kg via oral gavage measured up to 24 hrs post dose by LC-MS/MS analysis; format: ADME, organism-based, Macaca fascicularis; parameters: dose 3 mg/kg, route oral; conditions: in vivo
[5] = Drug excretion in cynomolgus monkey urine assessed as compound recovered at 1 mg/kg, iv measured over 24 hrs by LC/MS analysis; format: ADME, organism-based, Macaca fascicularis; conditions: read-out: Drug recovery
[6] = Volume of distribution at steady state in cynomolgus monkey at 1 mg/kg, iv via bolus dose measured up to 24 hrs post dose by LC-MS/MS analysis; format: ADME, organism-based, Macaca fascicularis; conditions: in vivo, read-out: Vdss
[7] = Tmax in cynomolgus monkey at 3 mg/kg via oral gavage by LC-MS/MS analysis; format: ADME, organism-based, Macaca fascicularis; conditions: in vivo
[8] = Oral bioavailability in cynomolgus monkey at 3 mg/kg via gavage measured up to 24 hrs post dose by LC-MS/MS analysis; format: ADME, organism-based, Macaca fascicularis; conditions: in vivo
[9] = Thermodynamic solubility of the compound in sodium phosphate buffer at pH 7.4 after 24 hrs by nitrogen detection method; format: physicochemical; conditions: read-out: Therm_solubility
[10] = rat, in vivo, iv, 1 mg/kg, 24 h
[11] = AUC (0 to 24 hrs) in cynomolgus monkey at 3 mg/kg via oral gavage measured up to 24 hrs post dose by LC-MS/MS analysis; format: ADME, organism-based, Macaca fascicularis; parameters: time < 24 hr, dose 3 mg/kg, route oral; conditions: in vivo
[12] = Volume of distribution at steady state in Wistar Han rat at 1 mg/kg, iv via bolus dose measured up to 24 hrs post dose by LC-MS/MS analysis; format: ADME, organism-based; conditions: in vivo, read-out: Vdss
[13] = Tmax in Wistar Han rat at 3 mg/kg via oral gavage by LC-MS/MS analysis; format: ADME, organism-based; conditions: in vivo
Rattus norvegicus [14] = test: (§1) AUC (0 to 24 hrs) in Wistar Han rat at 1 mg/kg, iv via bolus dose measured up to 24 hrs post dose by LC-MS/MS analysis; format: ADME, organism-based; parameters: time < 24 hr, dose 1 mg/kg, route intravenous; conditions: in vivo, 24 h
Rattus norvegicus [15] = test: (§2) AUC (0 to 24 hrs) in Wistar Han rat at 3 mg/kg via oral gavage measured up to 24 hrs post dose by LC-MS/MS analysis; format: ADME, organism-based; parameters: dose 3 mg/kg, time < 24 hr, route oral; conditions: in vivo, 24 h
[16] = Cmax in Wistar Han rat at 3 mg/kg via oral gavage measured up to 24 hrs post dose by LC-MS/MS analysis; format: ADME, organism-based; parameters: dose 3 mg/kg, route oral; conditions: in vivo
Rattus norvegicus [17] = test: (§3) Oral bioavailability in Wistar Han rat at 3 mg/kg via gavage measured up to 24 hrs post dose by LC-MS/MS analysis; format: ADME, organism-based; conditions: in vivo, 24 h
in vivo = conditions: Wistar Han, rat, urine, iv, 1 mg/kg
[18] = as §1; format: ADME, organism-based; parameters: time < 24 hr, dose 1 mg/kg, route intravenous; conditions: Wistar Han, in vivo
[19] = as §2; format: ADME, organism-based; parameters: dose 3 mg/kg, time < 24 hr, route oral; conditions: Wistar Han, in vivo
[20] = as §3; format: ADME, organism-based; conditions: Wistar Han, in vivo

O=C(O)c1c[nH]c2cc(Cl)c(-c3ccc(C4CCCCO4)cc3)cc12 (stereo unspecified)
pKa (physchem [1]): 4.9
logD (physchem [2]): 2.8

COc1ccc(-c2cc3c(C(=O)O)c[nH]c3cc2Cl)cn1
pKa (physchem [1]): 2.4 to 4.9
logD (physchem [2]): 1.8

O=C(O)c1c[nH]c2cc(F)c(-c3ccc([C@H]4CCCCO4)cc3)c(F)c12
logD (physchem [2]): 2

N#Cc1cc2[nH]cc(C(=O)O)c2cc1-c1ccc(C2(O)CCC2)cc1
pKa (physchem [1]): 4.6
logD (physchem [2]): 1.1

COc1nc(N(C)C)ccc1-c1cc2c(C(=O)O)c[nH]c2cc1Cl
pKa (physchem [1]): 2.6 to 4.9
AUC(0-t) at 24 h [3]: 15500 ng·h/mL
Cmax [4]: 2540 ng/mL
logD (physchem [2]): 2.3
dose excreted at 24 h [5]: < 1%
Vd [6]: 0.46 L/kg
Tmax [7]: 1.5 h
bioavailability [8]: 67%
solubility thermodynamic at 24 h [9]: 120 µM (≈ 41.5 µg/mL)
Drug recovery [10]: 1 ng/mL
AUC(0-t) at 24 h [11]: 31200 ng·h/mL
Vd [12]: 0.1 L/kg
Tmax [13]: 5.5 h
AUC (Rattus norvegicus [14]): 254 µg·h/mL
AUC (Rattus norvegicus [15]): 160 µg·h/mL
Cmax [16]: 10200 ng/mL
F (Rattus norvegicus [17]): 52%

CN(C)c1ccc(-c2cc3c(C(=O)O)c[nH]c3cc2Cl)cn1
pKa (physchem [1]): 4.7 to 6.2
logD (physchem [2]): 1.7

O=C(O)c1c[nH]c2cc(F)c(-c3ccc(C4(O)CCC4)cc3)c(F)c12
pKa (physchem [1]): 4.9
logD (physchem [2]): 1.3
dose excreted at 24 h (in vivo): 10.7%

COc1ccc(-c2cc3c(C(=O)O)c[nH]c3cc2Cl)c(OC)n1
pKa (physchem [1]): 4.8
logD (physchem [2]): 2.1

O=C(O)c1c[nH]c2cc(Cl)c(-c3ccc(OCCO)cc3)cc12
pKa (physchem [1]): 4.8
logD (physchem [2]): 1.1
dose excreted at 24 h (in vivo): 10%

O=C(O)c1c[nH]c2cc(F)c(-c3ccc([C@@H]4CCCCO4)cc3)c(F)c12
pKa (physchem [1]): 5
AUC(0-t) at 24 h [3]: 35900 ng·h/mL
Cmax [4]: 8180 ng/mL
logD (physchem [2]): 1.9
dose excreted at 24 h [5]: 2.2%
Vd [6]: 0.3 L/kg
dose excreted at 24 h (in vivo): 1.6%
Tmax [7]: 2 h
bioavailability [8]: 85%
solubility thermodynamic at 24 h [9]: 14 µM (≈ 5 µg/mL)
AUC(0-t) at 24 h [11]: 91600 ng·h/mL
Vd [12]: 0.31 L/kg
Tmax [13]: 2.7 h
AUC(0-t) at 24 h [18]: 16400 ng·h/mL
AUC(0-t) at 24 h [19]: 12800 ng·h/mL
Cmax [16]: 1890 ng/mL
bioavailability [20]: 26%

O=C(O)c1c[nH]c2cc(Cl)c(-c3ccc(OCCCN4CCOCC4)cc3)cc12
pKa (physchem [1]): 5.4 to 7.1
logD (physchem [2]): 1.8
dose excreted at 24 h (in vivo): 12%

COCCOc1ccc(-c2cc3c(C(=O)O)c[nH]c3cc2Cl)cc1
pKa (physchem [1]): 5
logD (physchem [2]): 1.8
